This is an account of results in ChEMBL document CHEMBL1140810, “Conversion of an MMP-potent scaffold to an MMP-selective HER-2 sheddase inhibitor via scaffold hybridization and subtle P1' permutations” (Bioorg Med Chem Lett, 2008).

One assay has as its target T1, Interstitial collagenase (Homo sapiens, UniProt P03956).
T1 sequence (P03956 whole entry): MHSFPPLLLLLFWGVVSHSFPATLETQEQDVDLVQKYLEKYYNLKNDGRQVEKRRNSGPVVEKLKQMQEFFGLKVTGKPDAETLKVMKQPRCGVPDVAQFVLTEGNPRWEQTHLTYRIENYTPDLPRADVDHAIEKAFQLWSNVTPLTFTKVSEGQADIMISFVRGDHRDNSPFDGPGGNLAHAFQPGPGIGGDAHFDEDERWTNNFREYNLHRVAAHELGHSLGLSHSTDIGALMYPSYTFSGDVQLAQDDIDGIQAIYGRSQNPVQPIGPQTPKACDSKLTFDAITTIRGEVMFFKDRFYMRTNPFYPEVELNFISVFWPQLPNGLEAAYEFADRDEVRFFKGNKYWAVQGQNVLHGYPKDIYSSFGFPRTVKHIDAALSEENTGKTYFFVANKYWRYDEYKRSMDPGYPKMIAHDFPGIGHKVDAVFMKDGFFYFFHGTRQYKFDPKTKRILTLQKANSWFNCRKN

In assay [1] the target is T2, Disintegrin and metalloproteinase domain-containing protein 10 (Homo sapiens, UniProt O14672).
T2 sequence (O14672 whole entry): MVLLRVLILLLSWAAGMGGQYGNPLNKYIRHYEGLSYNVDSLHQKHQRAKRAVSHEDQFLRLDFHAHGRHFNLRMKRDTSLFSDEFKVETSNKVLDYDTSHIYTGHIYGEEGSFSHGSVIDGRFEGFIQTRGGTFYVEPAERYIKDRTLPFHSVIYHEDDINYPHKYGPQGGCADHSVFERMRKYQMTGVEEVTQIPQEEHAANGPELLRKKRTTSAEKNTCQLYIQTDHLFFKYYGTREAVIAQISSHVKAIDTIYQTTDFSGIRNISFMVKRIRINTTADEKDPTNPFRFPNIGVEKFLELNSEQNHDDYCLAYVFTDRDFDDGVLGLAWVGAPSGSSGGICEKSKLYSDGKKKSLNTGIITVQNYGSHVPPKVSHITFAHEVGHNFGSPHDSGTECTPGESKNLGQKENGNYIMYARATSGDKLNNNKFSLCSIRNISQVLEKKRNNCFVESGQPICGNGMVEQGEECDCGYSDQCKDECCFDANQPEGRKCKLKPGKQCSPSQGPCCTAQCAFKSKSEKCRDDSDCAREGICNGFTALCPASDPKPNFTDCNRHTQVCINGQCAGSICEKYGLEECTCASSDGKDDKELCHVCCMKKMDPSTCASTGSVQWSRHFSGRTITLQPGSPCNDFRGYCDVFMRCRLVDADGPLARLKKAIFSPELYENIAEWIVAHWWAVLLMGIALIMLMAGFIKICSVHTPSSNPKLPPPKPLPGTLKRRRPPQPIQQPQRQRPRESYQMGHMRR
The assay is described as follows: Inhibition of HER2 sheddase in human BT474 cells. Type of assay: cell-based, BT-474.

For assay [2], the target named is 72 kDa type IV collagenase (Homo sapiens, UniProt P08253).
The target of assay [3] is Matrix metalloproteinase-9 (Homo sapiens, UniProt P14780). The assay is described as follows: Inhibition of MMP9.
The next assay deals with Stromelysin-1 (Homo sapiens, UniProt P08254). The assay is described as follows: Inhibition of MMP3.
Assay [4] deals with T2, Disintegrin and metalloproteinase domain-containing protein 10.

Chain of Stromelysin-1 (P08254 whole entry, the tested form may be a part): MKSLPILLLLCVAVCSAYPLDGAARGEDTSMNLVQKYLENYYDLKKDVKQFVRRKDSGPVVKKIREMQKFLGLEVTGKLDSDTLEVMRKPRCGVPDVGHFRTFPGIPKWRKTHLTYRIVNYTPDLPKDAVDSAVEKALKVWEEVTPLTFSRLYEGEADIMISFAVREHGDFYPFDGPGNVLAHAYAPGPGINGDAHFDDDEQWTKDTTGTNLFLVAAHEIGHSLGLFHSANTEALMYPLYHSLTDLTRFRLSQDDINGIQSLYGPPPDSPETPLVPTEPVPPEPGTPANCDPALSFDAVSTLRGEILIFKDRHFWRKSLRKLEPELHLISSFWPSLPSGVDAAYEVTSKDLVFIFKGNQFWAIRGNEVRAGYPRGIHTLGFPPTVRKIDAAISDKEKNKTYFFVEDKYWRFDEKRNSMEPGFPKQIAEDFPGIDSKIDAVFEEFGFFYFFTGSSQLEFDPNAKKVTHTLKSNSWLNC
Chain of Matrix metalloproteinase-9 (P14780 whole entry): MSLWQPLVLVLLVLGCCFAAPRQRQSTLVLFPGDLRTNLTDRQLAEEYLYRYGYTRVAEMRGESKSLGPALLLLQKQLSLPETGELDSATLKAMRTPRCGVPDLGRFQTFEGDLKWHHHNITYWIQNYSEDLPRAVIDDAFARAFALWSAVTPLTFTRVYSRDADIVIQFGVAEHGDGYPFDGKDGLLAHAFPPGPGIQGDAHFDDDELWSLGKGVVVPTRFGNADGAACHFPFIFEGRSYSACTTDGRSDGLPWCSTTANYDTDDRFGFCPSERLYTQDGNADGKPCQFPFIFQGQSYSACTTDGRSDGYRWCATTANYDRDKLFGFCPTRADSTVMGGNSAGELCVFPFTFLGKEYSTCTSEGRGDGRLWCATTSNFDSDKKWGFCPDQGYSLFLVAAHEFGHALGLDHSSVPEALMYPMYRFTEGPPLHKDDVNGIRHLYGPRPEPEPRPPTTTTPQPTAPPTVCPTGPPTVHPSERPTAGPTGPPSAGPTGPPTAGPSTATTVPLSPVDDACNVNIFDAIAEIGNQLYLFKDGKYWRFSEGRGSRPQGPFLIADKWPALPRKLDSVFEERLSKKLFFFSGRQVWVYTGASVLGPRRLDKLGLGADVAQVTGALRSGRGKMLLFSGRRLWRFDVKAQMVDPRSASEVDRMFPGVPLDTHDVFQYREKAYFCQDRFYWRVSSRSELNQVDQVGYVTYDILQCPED
Chain of 72 kDa type IV collagenase (P08253 whole entry): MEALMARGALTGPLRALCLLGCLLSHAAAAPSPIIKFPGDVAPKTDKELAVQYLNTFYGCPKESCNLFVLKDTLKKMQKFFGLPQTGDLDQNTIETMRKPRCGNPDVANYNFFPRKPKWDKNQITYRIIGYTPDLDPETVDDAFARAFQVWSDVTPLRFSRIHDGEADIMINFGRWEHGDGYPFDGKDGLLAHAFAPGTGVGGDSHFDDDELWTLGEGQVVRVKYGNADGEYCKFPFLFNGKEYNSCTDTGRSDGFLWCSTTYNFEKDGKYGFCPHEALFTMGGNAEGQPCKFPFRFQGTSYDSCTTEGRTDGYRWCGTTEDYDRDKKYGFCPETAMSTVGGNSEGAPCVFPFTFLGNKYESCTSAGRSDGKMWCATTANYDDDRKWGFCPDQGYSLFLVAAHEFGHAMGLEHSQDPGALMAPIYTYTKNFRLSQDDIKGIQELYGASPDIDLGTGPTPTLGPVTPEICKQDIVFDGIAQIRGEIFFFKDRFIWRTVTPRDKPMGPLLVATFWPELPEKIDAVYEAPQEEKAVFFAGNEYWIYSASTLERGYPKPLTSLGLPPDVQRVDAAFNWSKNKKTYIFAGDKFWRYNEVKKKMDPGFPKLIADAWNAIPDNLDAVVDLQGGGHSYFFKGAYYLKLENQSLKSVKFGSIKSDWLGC

On to `O=C(O[C@H]1CCOC1)N1CCC(CS(=O)(=O)N2CCN(c3ccccc3)CC2)(C(=O)NO)CC1`, for which the IC50 against Interstitial collagenase is 774 nM; in assay [1] it was 13 nM; in assay [2], 13 nM; in assay [3] it was 78 nM; on Stromelysin-1 it was 925 nM; in assay [4], 15 nM.
`O=C(O[C@H]1CCOC1)N1CCC(CS(=O)(=O)N2CCC(c3ccccc3)CC2)(C(=O)NO)CC1`: the IC50 against Interstitial collagenase was determined as 753 nM; in assay [1] it was 22 nM; in assay [2], 18 nM; in assay [3], 22 nM; against Stromelysin-1, 366 nM; in assay [4], 28 nM.
On to `O=C(O[C@H]1CCOC1)N1CCC(CS(=O)(=O)N2CCC(c3ccccc3F)CC2)(C(=O)NO)CC1`, for which the IC50 was > 5000 nM on Interstitial collagenase; 76 nM in assay [1]; 135 nM in assay [2]; 100 nM in assay [3]; 942 nM against Stromelysin-1; 44 nM in assay [4].
Consider `C#CCN1CCC(CS(=O)(=O)c2ccc(Oc3ccccc3)cc2)(C(=O)NO)CC1`, for which the IC50 is 8660 nM against Interstitial collagenase, < 1.5 nM in assay [2], < 1.5 nM in assay [3] and < 1.5 nM against Stromelysin-1.
With `Cc1cc(C2CCN(S(=O)(=O)CC3(C(=O)NO)CCN(C(=O)O[C@H]4CCOC4)CC3)CC2)cc(C)c1C#N`, the IC50 was > 5000 nM against Interstitial collagenase; 96 nM in assay [1]; 126 nM in assay [2]; 535 nM in assay [3]; 756 nM against Stromelysin-1; 57 nM in assay [4].
Regarding `Cc1ccccc1C1CCN(S(=O)(=O)CC2(C(=O)NO)CCN(C(=O)O[C@H]3CCOC3)CC2)CC1`, the IC50 on Interstitial collagenase was > 5000 nM; in assay [1], 41 nM; in assay [2] it was > 2000 nM; in assay [3], > 5000 nM; against Stromelysin-1, > 5000 nM; in assay [4] it was 18 nM.
Turning to `O=C(O[C@H]1CCOC1)N1CCC(CS(=O)(=O)N2CC=C(c3ccccc3)CC2)(C(=O)NO)CC1`, the IC50 on Interstitial collagenase worked out at 259 nM; in assay [1], 7.1 nM; in assay [2], 4 nM; in assay [3], 25 nM; against Stromelysin-1, 237 nM; in assay [4], 10 nM.
In the case of `Cc1ccccc1C1CCN(S(=O)(=O)CC2(C(=O)NO)CCN(C(=O)OC3CCCC3O)CC2)CC1` (trans isomer), the IC50 against Interstitial collagenase was 5000 nM; in assay [1], 6.2 nM; in assay [2], 537 nM; in assay [4], 16 nM.
`Cc1cc(C)cc(C2CCN(S(=O)(=O)CC3(C(=O)NO)CCN(C(=O)O[C@H]4CCOC4)CC3)CC2)c1`: the IC50 against Interstitial collagenase is > 5000 nM; in assay [1], 833 nM; in assay [2], 315 nM; in assay [3], 955 nM; on Stromelysin-1 it was 2160 nM; in assay [4], 286 nM.
Turning to `Cc1cc(C#N)ccc1C1CCN(S(=O)(=O)CC2(C(=O)NO)CCN(C(=O)OC[C@H]3CCCN3)CC2)CC1`, the IC50 was > 5000 nM at Interstitial collagenase, 23 nM in assay [1], 1380 nM in assay [2] and 11 nM in assay [4].
As for `Cc1cc(C#N)ccc1C1CCN(S(=O)(=O)CC2(C(=O)NO)CCN(C(=O)O[C@H]3CCOC3)CC2)CC1`, the IC50 is > 5000 nM against Interstitial collagenase; 14 nM in assay [1]; 2000 nM in assay [2]; > 5000 nM in assay [3]; > 5000 nM at Stromelysin-1; 12 nM in assay [4].
`Cc1cc(C#N)ccc1N1CCN(S(=O)(=O)CC2(C(=O)NO)CCN(C(=O)O[C@H]3CCOC3)CC2)CC1`: the IC50 was > 5000 nM against Interstitial collagenase; 25 nM in assay [1]; > 5000 nM in assay [2]; > 5000 nM in assay [3]; > 5000 nM at Stromelysin-1; 26 nM in assay [4].
With `Cc1cc(C#N)ccc1C1=CCN(S(=O)(=O)CC2(C(=O)NO)CCN(C(=O)OC[C@@H]3CCCN3)CC2)CC1`, the IC50 was > 5000 nM against Interstitial collagenase, 27 nM in assay [1], > 2000 nM in assay [2] and 34 nM in assay [4].
For `Cc1cc(C#N)ccc1C1=CCN(S(=O)(=O)CC2(C(=O)NO)CCN(C(=O)OC[C@H]3CCCN3)CC2)CC1`, the IC50 was > 5000 nM against Interstitial collagenase, 19 nM in assay [1], > 2000 nM in assay [2] and 24 nM in assay [4].
